Read-outs that look alike come from different tables or passages of the source.
Legend:
[1] = target: AM2 S31N (serine→asparagine mutation at residue 31 in the M2 protein) (Influenza A virus, UniProt P0DOF5, S31N); format: cell-based, influenza virus A/Udorn/72
[2] = target: AM2 V27A (valine→alanine mutation at residue 27 in the M2 protein) (Influenza A virus, UniProt P0DOF5, V27A); format: cell-based, influenza virus A/Udorn/72

## COc1ccccc1COc1ccc(CNC23CC4CC(CC(C4)C2)C3)cc1 [Example 15a, Adamantan-1-yl-[4-(2-methoxy-benzyloxy)-benzyl]-amine]
[1]
  S31N OOcyte Inhibition at 100 uM (%): A (key: (A)=31-95%; (B)=0-30%)
[2]
  V27A OOcyte Inhibition at 100 uM (%): B (key: (A)=31-95%; (B)=0-30%)

## FC(F)(F)Oc1ccc(CNC23CC4CC(CC(C4)C2)C3)cc1 [Example 4a, Adamantan-1-yl-(4-trifluoromethoxy-benzyl)-amine]
[1]
  S31N OOcyte Inhibition at 100 uM (%): B (key: (A)=31-95%; (B)=0-30%)
[2]
  V27A OOcyte Inhibition at 100 uM (%): B (key: (A)=31-95%; (B)=0-30%)

## Oc1ccc(CNC23CC4CC(CC2C4)C3)c(O)c1 [Example 111, 4-[(Hexahydro-2,5-methano-pentalen-3a-ylamino)-methyl]-benzene-1,3-diol]
[1]; pH 5.5
  S31N OOcyte Inhibition at 100 uM (%): A (key: (A)=31-95%; (B)=0-30%)
[2]; pH 5.5
  V27A OOcyte Inhibition at 100 uM (%): B (key: (A)=31-95%; (B)=0-30%)

## c1cnc2ccc(CNC34CC5CC(CC(C5)C3)C4)cc2c1 [Example 39a, Adamantan-1-yl-quinolin-6-ylmethyl-amine]
[1]
  S31N OOcyte Inhibition at 100 uM (%): A (key: (A)=31-95%; (B)=0-30%)
[2]
  V27A OOcyte Inhibition at 100 uM (%): B (key: (A)=31-95%; (B)=0-30%)

## Oc1c(CNC23CC4CC(CC(C4)C2)C3)ccc2ccccc12 [Example 97, 2-(Adamantan-1-ylaminomethyl)-naphthalen-1-ol]
[1]; pH 5.5
  S31N OOcyte Inhibition at 100 uM (%): A (key: (A)=31-95%; (B)=0-30%)
[2]; pH 5.5
  V27A OOcyte Inhibition at 100 uM (%): B (key: (A)=31-95%; (B)=0-30%)

## c1csc(CNC23CC4CC(CC(C4)C2)C3)n1 [Example 71a, Adamantan-1-yl-thiazol-2-ylmethyl-amine]
[1]
  S31N OOcyte Inhibition at 100 uM (%): A (key: (A)=31-95%; (B)=0-30%)
[2]
  V27A OOcyte Inhibition at 100 uM (%): B (key: (A)=31-95%; (B)=0-30%)

## c1cc(-c2nc(CNC34CC5CC(CC(C5)C3)C4)no2)cs1 [Example 143a, N-((5-(thiophen-3-yl)-1,2,4-oxadiazol-3-yl)methyl)adamantan-1-amine]
[1]
  S31N OOcyte Inhibition at 100 uM (%): A (key: (A)=31-95%; (B)=0-30%)
[2]
  V27A OOcyte Inhibition at 100 uM (%): B (key: (A)=31-95%; (B)=0-30%)

## CCOc1ccc(CNC23CC4CC(CC(C4)C2)C3)cc1 [Example 20, Adamantan-1-yl-(4-ethoxy-benzyl)-amine]
[1]; pH 5.5
  S31N OOcyte Inhibition at 100 uM (%): A (key: (A)=31-95%; (B)=0-30%)
[2]; pH 5.5
  V27A OOcyte Inhibition at 100 uM (%): B (key: (A)=31-95%; (B)=0-30%)

## CC(=O)Oc1ccc(CNC23CC4CC(CC(C4)C2)C3)cc1 [Example 33, Acetic acid 4-(adamantan-1-ylaminomethyl)-phenyl ester]
[1]; pH 5.5
  S31N OOcyte Inhibition at 100 uM (%): A (key: (A)=31-95%; (B)=0-30%)
[2]; pH 5.5
  V27A OOcyte Inhibition at 100 uM (%): B (key: (A)=31-95%; (B)=0-30%)

## CSc1ccc(CNC23CC4CC(CC(C4)C2)C3)c(SC)c1 [Example 55, Adamantan-1-yl-(2,4-bis-methylsulfanyl-benzyl)-amine]
[1]; pH 5.5
  S31N OOcyte Inhibition at 100 uM (%): B (key: (A)=31-95%; (B)=0-30%)
[2]; pH 5.5
  V27A OOcyte Inhibition at 100 uM (%): B (key: (A)=31-95%; (B)=0-30%)

## c1cn2cc(CNC3C4CC5CC(C4)CC3C5)nc2s1 (stereo not shown) [Example 107, Adamantan-2-yl-imidazo[2,1-b]thiazol-6-ylmethyl-amine]
[1]; pH 5.5
  S31N OOcyte Inhibition at 100 uM (%): B (key: (A)=31-95%; (B)=0-30%)
[2]; pH 5.5
  V27A OOcyte Inhibition at 100 uM (%): B (key: (A)=31-95%; (B)=0-30%)

## CC(C)(C)OC(=O)Nc1ccc(CNC23CC4CC(CC(C4)C2)C3)cc1 [Example 12, [4-(Adamantan-1-ylaminomethyl)-phenyl]carbamic acid tert-butyl ester]
[1]; pH 5.5
  S31N OOcyte Inhibition at 100 uM (%): B (key: (A)=31-95%; (B)=0-30%)
[2]; pH 5.5
  V27A OOcyte Inhibition at 100 uM (%): B (key: (A)=31-95%; (B)=0-30%)

## c1ccc(-c2cc(CNC34CC5CC(CC(C5)C3)C4)no2)cc1 [Example 116a, N-((5-phenylisoxazol-3-yl)methyl)adamantan-1-amine]
[1]
  S31N OOcyte Inhibition at 100 uM (%): A (key: (A)=31-95%; (B)=0-30%)
[2]
  V27A OOcyte Inhibition at 100 uM (%): B (key: (A)=31-95%; (B)=0-30%)

## Oc1ccc(CNC23CC4CC(CC(C4)C2)C3)cc1 [Example 9, 4-(Adamantan-1-ylaminomethyl)-phenol]
[1]; pH 5.5
  S31N OOcyte Inhibition at 100 uM (%): A (key: (A)=31-95%; (B)=0-30%)
[2]; pH 5.5
  V27A OOcyte Inhibition at 100 uM (%): B (key: (A)=31-95%; (B)=0-30%)

## Cc1ccc(C(C)NC23CC4CC(CC(C4)C2)C3)s1 (stereo not shown) [Example 97a, N-(1-(5-methylthiophen-2-yl)ethyl)adamantan-1-amine]
[1]
  S31N OOcyte Inhibition at 100 uM (%): B (key: (A)=31-95%; (B)=0-30%)
[2]
  V27A OOcyte Inhibition at 100 uM (%): B (key: (A)=31-95%; (B)=0-30%)

## CS(=O)(=O)c1ccc(CNC23CC4CC(CC(C4)C2)C3)cc1 [Example 25, Adamantan-1-yl-(4-methanesulfonyl-benzyl)-amine]
[1]; pH 5.5
  S31N OOcyte Inhibition at 100 uM (%): B (key: (A)=31-95%; (B)=0-30%)
[2]; pH 5.5
  V27A OOcyte Inhibition at 100 uM (%): B (key: (A)=31-95%; (B)=0-30%)

## c1ccc2[nH]c(CNC34CC5CC(CC(C5)C3)C4)cc2c1 [Example 93, Adamantan-1-yl-(1H-indol-2-ylmethyl)-amine]
[1]; pH 5.5
  S31N OOcyte Inhibition at 100 uM (%): A (key: (A)=31-95%; (B)=0-30%)
[2]; pH 5.5
  V27A OOcyte Inhibition at 100 uM (%): B (key: (A)=31-95%; (B)=0-30%)

## [O-][S+]1Cc2cc(CNC34CC5CC(CC(C5)C3)C4)sc2C1 (stereo not shown) [Example 85, Adamantan-1-yl-(5-oxo-5,6-dihydro-4H-5M-thieno[3,4-b]thiophen-2-ylmethyl)-amine]
[1]; pH 5.5
  S31N OOcyte Inhibition at 100 uM (%): B (key: (A)=31-95%; (B)=0-30%)
[2]; pH 5.5
  V27A OOcyte Inhibition at 100 uM (%): B (key: (A)=31-95%; (B)=0-30%)

## Brc1cccc(CNC23CC4CC(CC(C4)C2)C3)c1 [Example 3a, N-(3-Bromobenzyl)adamantan-1-amine]
[1]
  S31N OOcyte Inhibition at 100 uM (%): B (key: (A)=31-95%; (B)=0-30%)
[2]
  V27A OOcyte Inhibition at 100 uM (%): B (key: (A)=31-95%; (B)=0-30%)

## FC(F)(F)c1ccc(CNC23CC4CC(CC(C4)C2)C3)cc1 [Example 5a, Adamantan-1-yl-(4-trifluoromethyl-benzyl)-amine]
[1]
  S31N OOcyte Inhibition at 100 uM (%): B (key: (A)=31-95%; (B)=0-30%)
[2]
  V27A OOcyte Inhibition at 100 uM (%): B (key: (A)=31-95%; (B)=0-30%)

## Clc1ccc(CNC23CC4CC(CC(C4)C2)C3)s1 [Example 79a, N-((5-chlorothiophen-2-yl)methyl)adamantan-1-amine]
[1]
  S31N OOcyte Inhibition at 100 uM (%): A (key: (A)=31-95%; (B)=0-30%)
[2]
  V27A OOcyte Inhibition at 100 uM (%): B (key: (A)=31-95%; (B)=0-30%)

## N=C(Nc1ccc(O)cc1)C12CC3CC(CC(C3)C1)C2 [Example 5]
[1]; pH 5.5
  S31N OOcyte Inhibition at 100 uM (%): B (key: (A)=31-95%; (B)=0-30%)
[2]; pH 5.5
  V27A OOcyte Inhibition at 100 uM (%): B (key: (A)=31-95%; (B)=0-30%)

## COc1ccc(CNC23CC4CC(CC(C4)C2)C3)c(OC)c1 [Example 59, Adamantan-1-yl-(2,4-dimethoxy-benzyl)-amine]
[1]; pH 5.5
  S31N OOcyte Inhibition at 100 uM (%): B (key: (A)=31-95%; (B)=0-30%)
[2]; pH 5.5
  V27A OOcyte Inhibition at 100 uM (%): B (key: (A)=31-95%; (B)=0-30%)

## c1coc(-c2ccc(CNC34CC5CC(CC(C5)C3)C4)cn2)c1 [Example 60a, N-((6-(furan-2-yl)pyridin-3-yl)methyl)adamantan-1-amine]
[1]
  S31N OOcyte Inhibition at 100 uM (%): A (key: (A)=31-95%; (B)=0-30%)
[2]
  V27A OOcyte Inhibition at 100 uM (%): B (key: (A)=31-95%; (B)=0-30%)

## c1c(CNC23CC4CC(CC(C4)C2)C3)sc2c1CSC2 [Example 84, Adamantan-1-yl-(4,6-dihydro-thieno[3,4-b]thiophen-2-ylmethyl)-amine]
[1]; pH 5.5
  S31N OOcyte Inhibition at 100 uM (%): A (key: (A)=31-95%; (B)=0-30%)
[2]; pH 5.5
  V27A OOcyte Inhibition at 100 uM (%): B (key: (A)=31-95%; (B)=0-30%)

## COc1ccc(CNC23CC4CC(CC(C4)C2)C3)cc1O [Example 61, 5-(Adamantan-1-ylaminomethyl)-2-methoxy-phenol]
[1]; pH 5.5
  S31N OOcyte Inhibition at 100 uM (%): B (key: (A)=31-95%; (B)=0-30%)
[2]; pH 5.5
  V27A OOcyte Inhibition at 100 uM (%): A (key: (A)=31-95%; (B)=0-30%)

## c1cn(-c2ccc(CNC34CC5CC(CC(C5)C3)C4)cc2)cn1 [Example 36, Adamantan-1-yl-(4-imidazol-1-yl-benzyl)-amine]
[1]; pH 5.5
  S31N OOcyte Inhibition at 100 uM (%): B (key: (A)=31-95%; (B)=0-30%)
[2]; pH 5.5
  V27A OOcyte Inhibition at 100 uM (%): B (key: (A)=31-95%; (B)=0-30%)

## c1cc(C2CCCCC2)ccc1CNC12CC3CC(CC(C3)C1)C2 [Example 10a, Adamantan-1-yl-(4-cyclohexyl-benzyl)-amine]
[1]
  S31N OOcyte Inhibition at 100 uM (%): A (key: (A)=31-95%; (B)=0-30%)
[2]
  V27A OOcyte Inhibition at 100 uM (%): B (key: (A)=31-95%; (B)=0-30%)

## c1csc(-c2ncc(CNC34CC5CC(CC(C5)C3)C4)s2)c1 [Example 144a, N-((2-(thiophen-2-yl)thiazol-5-yl)methyl)adamantan-1-amine]
[1]
  S31N OOcyte Inhibition at 100 uM (%): A (key: (A)=31-95%; (B)=0-30%)
[2]
  V27A OOcyte Inhibition at 100 uM (%): B (key: (A)=31-95%; (B)=0-30%)

## c1ccc2sc(CNC34CC5CC(CC(C5)C3)C4)cc2c1 [Example 88, Adamantan-1-yl-benzo[b]thiophen-2-ylmethyl-amine]
[1]; pH 5.5
  S31N OOcyte Inhibition at 100 uM (%): A (key: (A)=31-95%; (B)=0-30%)
[2]; pH 5.5
  V27A OOcyte Inhibition at 100 uM (%): B (key: (A)=31-95%; (B)=0-30%)

## c1cc2cc(CNC34CC5CC(CC(C5)C3)C4)ccc2s1 [Example 41a, N-(benzo[b]thiophen-5-ylmethyl)adamantan-1-amine]
[1]
  S31N OOcyte Inhibition at 100 uM (%): B (key: (A)=31-95%; (B)=0-30%)
[2]
  V27A OOcyte Inhibition at 100 uM (%): A (key: (A)=31-95%; (B)=0-30%)

## O=c1ccc2cc(CNC34CC5CC(CC(C5)C3)C4)ccc2o1 [Example 42a, 6-((adamantan-1-ylamino)methyl)-2H-chromen-2-one]
[1]
  S31N OOcyte Inhibition at 100 uM (%): B (key: (A)=31-95%; (B)=0-30%)
[2]
  V27A OOcyte Inhibition at 100 uM (%): B (key: (A)=31-95%; (B)=0-30%)

## O=[N+]([O-])c1ccc(CNC23CC4CC(CC(C4)C2)C3)s1 [Example 100a, N-((5-nitrothiophen-2-yl)methyl)adamantan-1-amine]
[1]
  S31N OOcyte Inhibition at 100 uM (%): B (key: (A)=31-95%; (B)=0-30%)
[2]
  V27A OOcyte Inhibition at 100 uM (%): A (key: (A)=31-95%; (B)=0-30%)

## c1csc(-c2cc(CNC34CC5CC(CC(C5)C3)C4)no2)c1 [Example 142a, N-((5-(thiophen-2-yl)isoxazol-3-yl)methyl)adamantan-1-amine]
[1]
  S31N OOcyte Inhibition at 100 uM (%): A (key: (A)=31-95%; (B)=0-30%)
[2]
  V27A OOcyte Inhibition at 100 uM (%): B (key: (A)=31-95%; (B)=0-30%)

## CC(NCc1ccc(O)cc1)C12CC3CC(CC(C3)C1)C2 (stereo not shown) [Example 4, 4-[(1-Adamantan-1-yl-ethylamino)-methyl]-phenol]
[1]; pH 5.5
  S31N OOcyte Inhibition at 100 uM (%): B (key: (A)=31-95%; (B)=0-30%)
[2]; pH 5.5
  V27A OOcyte Inhibition at 100 uM (%): B (key: (A)=31-95%; (B)=0-30%)
